{"source": "paper PMC10601989", "about": "“Charge and lipophilicity are required for effective block of the hair-cell mechano-electrical transducer channel by FM1-43 and its derivatives” (Frontiers in Cell and Developmental Biology, 2023)"}
{"test_system": "T1, hair-cell mechano-electrical transducer (MET) channel (native, mouse cochlear outer hair cells)", "T1 construct": "gene Tmc1; native full-length MET complex in outer hair cells of P2 organotypic cochlear cultures kept 1-2 days in vitro; TMC1 and/or TMC2 pore with TMIE (subunits named only in the discussion; copy numbers from the C. elegans cryo-EM structure it cites); with Transmembrane inner ear expressed protein", "assay": "whole-cell patch clamp of MET currents, fluid-jet bundle stimulation, fractional block", "format": "cell-based", "details": "-64 mV; extracellular superfusion, 1.3 mM Ca2+, pH 7.48, room temperature; permeant voltage-dependent block"}
{"smiles": "CCCCN(CCCC)c1ccc(/C=C/c2cc[n+](CCC[N+](CC)(CC)CC)cc2)cc1", "note": "[compound 13550, FM1-43]", "% block at 10 μM": "~ 30%"}
{"smiles": "CCCCN(CCCC)c1ccc(/C=C/c2cc[n+](CCCC(=O)OCC)cc2)cc1", "note": "[compound 13551, 13551]", "% block at 10 μM": "> 80%"}
{"smiles": "CCCCN(CCCC)c1ccc(/C=C/c2cc[n+](CCCCC[N+](CC)(CC)CC)cc2)cc1", "note": "[compound 13667, 13667]", "% block at 10 μM": "> 80%"}
{"smiles": "CCCCN(CCCC)c1ccc(/C=C/c2cc[n+](CCCC[N+](CC)(CC)CC)cc2)cc1", "note": "[compound 13669, 13669]", "% block at 10 μM": "> 80%"}
